Experimental findings from ChEMBL document CHEMBL5726119, “Macrocyclic compounds as IRAK4 inhibitors for the treatment of inflammatory diseases” (2017) are described below.

The target of the test is T1, Interleukin-1 receptor-associated kinase 4 (Homo sapiens, UniProt Q9NWZ3).
T1 sequence (Q9NWZ3 whole entry): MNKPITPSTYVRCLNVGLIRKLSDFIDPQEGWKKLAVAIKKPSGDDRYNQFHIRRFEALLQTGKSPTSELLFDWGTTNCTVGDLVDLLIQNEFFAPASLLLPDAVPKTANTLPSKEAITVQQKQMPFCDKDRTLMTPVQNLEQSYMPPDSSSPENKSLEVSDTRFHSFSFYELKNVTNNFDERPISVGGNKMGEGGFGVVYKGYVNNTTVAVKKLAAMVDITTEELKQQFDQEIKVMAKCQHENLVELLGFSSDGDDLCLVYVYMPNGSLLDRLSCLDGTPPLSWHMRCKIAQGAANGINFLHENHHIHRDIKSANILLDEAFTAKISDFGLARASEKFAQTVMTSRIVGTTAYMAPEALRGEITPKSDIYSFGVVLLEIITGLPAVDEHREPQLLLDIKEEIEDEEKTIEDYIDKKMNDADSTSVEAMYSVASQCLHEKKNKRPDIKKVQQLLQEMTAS
Kind of test: Biochemical Assay: The biochemical assay is in a AlphaScreen format. The kinase reaction is based on the IRAK-4 phosphorylation of a biotin labeled peptide. The phosphopeptide is incubated with anti-phosphothreonine antibody as well as streptavidin- and protein A-coated beads. Binding of the protein-A coated beads to the antibody and the streptavidin beads to the peptide, leads to an energy transfer from one bead to the other, ultimately producing a luminescent/fluorescent signal.Generally, the kinase reaction is carried out at 1 nM IRAK4, 1.6 μM peptide, 10 μM ATP in reaction buffer 50 mM Hepes, 60 mM NaCl, 5 mM MgCl2, 0.25 mM MnCl2, 2 mM DTT, 0.01% BSA, 0.01% Tween-20) for 3.5 h at RT.

The compound `CC(C)C1NC(=O)c2nn(C3CCOCC3)cc2NC(=O)c2csc(n2)-c2ccnc(c2)CCCNC1=O` (stereo not given) had an IC50 of less than 10 µM. The figure for `Cn1cc2c(n1)C(=O)NCCOCCOc1cc(ccn1)-c1cc(ccn1)C(=O)N2` is less than 1 µM; for `Cn1cc2c(n1)C(=O)NCCOCCOc1cc(ccn1)-c1cncc(c1)C(=O)N2` it is less than 10 µM; for `Cn1cc2c(n1)C(=O)NCCOCCOc1cc(ccn1)-c1cc(cs1)C(=O)N2` it is less than 0.1 µM.

`O=C1NCCCOC2CCCC(CNc3cc(ccn3)-c3nc1cs3)C2` (stereo not given): the IC50 is more than 10 µM.
